Experimental data taken from patent US9604982B2, “P2X7 modulators” (Janssen Pharmaceutica NV, priority 2013, dated 2017).
Like-named read-outs stand apart in the source and are kept apart here.

Columns and labels:
[1] = target: recombinant rat P2X7 channel (Rattus norvegicus (Rat), UniProt Q64663); assay: Ca2+ flux (FLIPR) in 1321N1 cells expressing recombinant rat P2X7 channel; format: cell-based; details: Table 3 (additional runs); 250 μM BzATP
Procedure: P2X7 Antagonism in Recombinant Human P2X7 Cells or Recombinant Rat P2X7 Cells: (a) Ca^2+ Flux and (b) Radioligand Binding
(a) Ca^2+ flux: 1321N1 cells expressing the recombinant human or rat P2X7 channel was cultured in HyQ DME/(HyClone/Dulbecco's Modified Eagle Medium) high glucose supplemented with 10% Fetal Bovine Serum (FBS) and appropriate selection marker. Cells were seeded at a density of 25000 cells/well (96-well clear bottom black walled plates) in 100 μl volume/well. On the day of the experiment, cell plates were washed with assay buffer, containing (in mM): 130 NaCl, 2 KCl, 1 CaCl2, 1 MgCl2, 10 HEPES, 5 glucose; pH 7.40 and 300 mOs. After the wash, cells were loaded with the Calcium-4 dye (Molecular Device) and incubated in the dark for 60 minutes. Test compounds were prepared at 250× the test concentration in neat DMSO. Intermediate 96-well compound plates were prepared by transferring 1.2 μL of the compound into 300 μL of assay buffer. A further 3× dilution occurred when transferring 50 μL/well of the compound plate to 100 μL/well in the cell plate. Cells were incubated with test compounds and dye for 30 minutes. […] The fluorescence change was measured 180 seconds after adding the agonist.

[2] = target: P2X7 (Homo sapiens (Human), UniProt Q99572); assay: P2X7 antagonism in human peripheral blood mononuclear cells (PBMCs), IL-1β release after LPS + Bz-ATP (ELISA); format: cell-based; details: 0.5 mM Bz-ATP; for remaining activity at 10 µM: read-out: PBMC 10 μM (% control); for PBMC 10 μM (% control): Table 3 (additional runs)
Procedure: Human blood was collected using a blood donor program. […] Cells were incubated for an additional 1.5 hours. […] Data are analyzed and graphed on Graphpad Prism 5. […] The IC50 for each compound is then uploaded into 3DX.

[3] = P2X7, Table 3 (additional runs), 10 μM compound

Sequence of recombinant rat P2X7 channel (Q64663 whole entry): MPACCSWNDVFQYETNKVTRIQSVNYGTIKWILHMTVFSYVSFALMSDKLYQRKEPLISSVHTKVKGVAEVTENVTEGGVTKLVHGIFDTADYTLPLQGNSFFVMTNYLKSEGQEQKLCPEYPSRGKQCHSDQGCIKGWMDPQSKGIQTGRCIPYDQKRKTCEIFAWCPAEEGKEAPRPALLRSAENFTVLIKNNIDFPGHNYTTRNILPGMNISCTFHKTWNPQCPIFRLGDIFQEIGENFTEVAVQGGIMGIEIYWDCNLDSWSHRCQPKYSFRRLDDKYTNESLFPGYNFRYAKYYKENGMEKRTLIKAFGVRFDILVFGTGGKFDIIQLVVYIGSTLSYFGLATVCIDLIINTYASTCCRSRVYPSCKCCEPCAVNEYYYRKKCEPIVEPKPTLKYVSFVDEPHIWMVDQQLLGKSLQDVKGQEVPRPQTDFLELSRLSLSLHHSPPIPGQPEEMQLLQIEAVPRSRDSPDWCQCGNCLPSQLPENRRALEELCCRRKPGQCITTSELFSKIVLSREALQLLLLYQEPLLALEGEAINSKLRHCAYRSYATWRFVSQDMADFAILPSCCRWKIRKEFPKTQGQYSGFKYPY
Sequence of P2X7 (Q99572 whole entry): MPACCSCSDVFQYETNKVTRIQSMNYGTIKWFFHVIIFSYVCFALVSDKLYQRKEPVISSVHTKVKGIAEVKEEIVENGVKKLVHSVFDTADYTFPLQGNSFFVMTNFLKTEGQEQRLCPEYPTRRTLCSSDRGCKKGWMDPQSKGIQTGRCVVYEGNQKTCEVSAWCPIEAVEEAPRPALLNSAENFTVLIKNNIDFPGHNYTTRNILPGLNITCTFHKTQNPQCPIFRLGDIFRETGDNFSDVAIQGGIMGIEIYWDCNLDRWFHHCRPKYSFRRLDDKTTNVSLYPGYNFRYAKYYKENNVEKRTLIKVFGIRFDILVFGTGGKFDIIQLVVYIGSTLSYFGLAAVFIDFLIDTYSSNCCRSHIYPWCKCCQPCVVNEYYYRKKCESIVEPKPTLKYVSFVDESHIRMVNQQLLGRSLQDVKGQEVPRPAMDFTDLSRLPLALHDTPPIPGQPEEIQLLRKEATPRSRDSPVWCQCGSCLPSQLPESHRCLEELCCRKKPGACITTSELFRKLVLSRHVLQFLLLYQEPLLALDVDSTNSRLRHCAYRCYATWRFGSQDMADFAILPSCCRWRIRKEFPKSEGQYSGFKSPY

| SMILES | IC50 [1] [nM] | remaining activity at 10 µM ([2]; P2X7, Table 2, 10 μM compound) [%] | PBMC 10 μM (% control) ([2]; 10 μM compound) | remaining activity at 10 µM [2, 3] [%] |
| --- | --- | --- | --- | --- |
| Cc1nc2c(c(-c3ccn[nH]3)n1)C[C@@H](C)N(C(=O)c1cccc(F)c1Cl)C2 (single isomer, unassigned) [Example 144, (R*)-(2-chloro-3-fluorophenyl)(2,6-dimethyl-4-(1H-pyrazol-5-yl)-5,6-dihydropyrido[3,4-d]pyrimidin-7(8H)-yl)methanone] | 200 | – | – | – |
| Cc1nc2c(c(-c3ccn[nH]3)n1)C[C@H](C)N(C(=O)c1cccc(Cl)c1Cl)C2 (single isomer, unassigned) [Example 69, (S*)-(2,3-dichlorophenyl)(2,6-dimethyl-4-(1H-pyrazol-5-yl)-5,6-dihydropyrido[3,4-d]pyrimidin-7(8H)-yl)methanone] | – | -6.2 | −6.2 | – |
| Cc1nc2c(c(-c3ccn[nH]3)n1)C[C@@H](C)N(C(=O)c1cccc(C(F)(F)F)c1Cl)C2 (single isomer, unassigned) [Example 58, (6R*)-7-{[2-Chloro-3-(trifluoromethyl)phenyl]carbonyl}-2,6-dimethyl-4-(1H-pyrazol-5-yl)-5,6,7,8-tetrahydropyrido[3,4-d]pyrimidine] | – | 5 | 5.0 | – |
| C[C@@H]1c2ncnc(-c3ccn[nH]3)c2CCN1C(=O)c1cccc(C(F)(F)F)c1Cl (single isomer, unassigned) [Example 113, (R*)-(2-chloro-3-(trifluoromethyl)phenyl)(8-methyl-4-(1H-pyrazol-5-yl)-5,6-dihydropyrido[3,4-d]pyrimidin-7(8H)-yl)methanone] | – | -2.1 | −2.1 | – |
| Cc1nc2c(c(-c3ccn[nH]3)n1)C[C@H](C)N(C(=O)c1ccc(Cl)c(F)c1Cl)C2 [Example 72, (S)-(2,4-dichloro-3-fluorophenyl)(2,6-dimethyl-4-(1H-pyrazol-5-yl)-5,6-dihydropyrido[3,4-d]pyrimidin-7(8H)-yl)methanone] | – | -2.6 | −2.6 | – |
| Cc1nc2c(c(-c3ccn[nH]3)n1)C[C@H](C)N(C(=O)c1ccc(F)c(C(F)(F)F)c1Cl)C2 (single isomer, unassigned) [Example 65, (S*)-(2-chloro-4-fluoro-3-(trifluoromethyl)phenyl)(2,6-dimethyl-4-(1H-pyrazol-5-yl)-5,6-dihydropyrido[3,4-d]pyrimidin-7(8H)-yl)methanone] | – | 3.9 | 3.9 | – |
| Cc1nc2c(c(-c3ccn[nH]3)n1)C[C@H](C)N(C(=O)c1ccc(F)c(Cl)c1Cl)C2 (single isomer, unassigned) [Example 82, (S*)-(2,3-dichloro-4-fluorophenyl)(2,6-dimethyl-4-(1H-pyrazol-5-yl)-5,6-dihydropyrido[3,4-d]pyrimidin-7(8H)-yl)methanone] | – | -1 | −1.0 | – |
| Cc1nc2c(c(-c3ccn[nH]3)n1)CC(C)N(C(=O)c1cccc(OC(F)(F)F)c1F)C2 (stereo not shown) [Example 139, (2,6-dimethyl-4-(1H-pyrazol-5-yl)-5,6-dihydropyrido[3,4-d]pyrimidin-7(8H)-yl)(2-fluoro-3-(trifluoromethoxy)phenyl)methanone] | 1460 | – | – | 2 |
| Cc1nc2c(c(-c3ccn[nH]3)n1)C[C@H](C)N(C(=O)c1ccc(F)cc1Cl)C2 (single isomer, unassigned) [Example 92, (S*)-(2-chloro-4-fluorophenyl)(2,6-dimethyl-4-(1H-pyrazol-5-yl)-5,6-dihydropyrido[3,4-d]pyrimidin-7(8H)-yl)methanone] | – | 9.4 | 9.4 | – |
| Cc1nc2c(c(-c3ccn[nH]3)n1)C[C@@H](C)N(C(=O)c1cccc(Cl)c1Cl)C2 (single isomer, unassigned) [Example 68, (R*)-(2,3-dichlorophenyl)(2,6-dimethyl-4-(1H-pyrazol-5-yl)-5,6-dihydropyrido[3,4-d]pyrimidin-7(8H)-yl)methanone] | – | -0.5 | −0.5 | – |
| Cc1nc2c(c(-c3ccn[nH]3)n1)C[C@@H](C)N(C(=O)c1ccc(Cl)cc1Cl)C2 (single isomer, unassigned) [Example 84, (R*)-(2,4-dichlorophenyl)(2,6-dimethyl-4-(1H-pyrazol-5-yl)-5,6-dihydropyrido[3,4-d]pyrimidin-7(8H)-yl)methanone] | – | 7.5 | 7.5 | – |
| CC(C)c1nc2c(c(-c3ccn[nH]3)n1)C[C@@H](C)N(C(=O)c1cccc(C(F)(F)F)c1Cl)C2 (single isomer, unassigned) [Example 102, (R*)-(2-chloro-3-(trifluoromethyl)phenyl)(2-isopropyl-6-methyl-4-(1H-pyrazol-5-yl)-5,6-dihydropyrido[3,4-d]pyrimidin-7(8H)-yl)methanone] | – | 11.7 | – | – |
| Cc1nc2c(c(-c3ccn(CCF)n3)n1)C[C@@H](C)N(C(=O)c1cccc(C(F)(F)F)c1Cl)C2 (single isomer, unassigned) [Example 124, (R*)-(2-chloro-3-(trifluoromethyl)phenyl)(4-(1-(2-fluoroethyl)-1H-pyrazol-3-yl)-2,6-dimethyl-5,6-dihydropyrido[3,4-d]pyrimidin-7(8H)-yl)methanone] | – | 18.6 | – | – |
| Cc1nc2c(c(-c3ccn[nH]3)n1)C[C@H](C)N(C(=O)c1ccc(F)cc1F)C2 (single isomer, unassigned) [Example 95, (S*)-(2,4-difluorophenyl)(2,6-dimethyl-4-(1H-pyrazol-5-yl)-5,6-dihydropyrido[3,4-d]pyrimidin-7(8H)-yl)methanone] | – | -19.2 | – | – |
| Cc1nc2c(c(-c3ccn[nH]3)n1)C[C@H](C)N(C(=O)c1cccc(C(F)(F)F)c1F)C2 (single isomer, unassigned) [Example 76, (S*)-(2,6-dimethyl-4-(1H-pyrazol-5-yl)-5,6-dihydropyrido[3,4-d]pyrimidin-7(8H)-yl)(2-fluoro-3-(trifluoromethyl)phenyl)methanone] | – | 14.3 | – | – |
| Cc1nc2c(c(-c3ccn[nH]3)n1)CC(C)N(C(=O)c1cccc(F)c1Cl)C2 (stereo not shown) [Example 143, (2-chloro-3-fluorophenyl)(2,6-dimethyl-4-(1H-pyrazol-5-yl)-5,6-dihydropyrido[3,4-d]pyrimidin-7(8H)-yl)methanone] | 52.2 | – | – | 11.9 |
| Cc1nc2c(c(-c3ccn[nH]3)n1)C[C@H](C)N(C(=O)c1cccc(C(F)(F)F)c1Cl)C2 (single isomer, unassigned) [Example 59, (6S*)-7-{[2-Chloro-3-(trifluoromethyl)phenyl]carbonyl}-2,6-dimethyl-4-(1H-pyrazol-5-yl)-5,6,7,8-tetrahydropyrido[3,4-d]pyrimidine] | – | 2.8 | 2.8 | – |
| CCc1nc2c(c(-c3ccn[nH]3)n1)C[C@H](C)N(C(=O)c1cccc(C(F)(F)F)c1Cl)C2 (single isomer, unassigned) [Example 100, (S*)-(2-chloro-3-(trifluoromethyl)phenyl)(2-ethyl-6-methyl-4-(1H-pyrazol-5-yl)-5,6-dihydropyrido[3,4-d]pyrimidin-7(8H)-yl)methanone] | – | 4 | 4.0 | – |
